One assay has as its system BCL2 mRNA. Put plainly: qPCR of BCL2 mRNA in MCF7 cells. The class given is cell-based, human. The note with it: 72 h. Here is the method:
(§1) qPCR. MCF7 and melanoma cells were treated with GTC365 and BRACO-19 for 72 h. Total RNA was extracted using an RNeasy mini-prep kit (Qiagen) and quantitated by measuring absorbance at 260 nm. cDNA was synthesized using a Takara PrimeScript™ RT Reagent Kit with gDNA eraser and then used as a template for qPCR. The qPCR was performed using Kapa Probe Fast qPCR Master Mix with ABI Taqman probes of hTERT (Hs00972656_m1), BCL2 (HS00608023_m1, FAM-labeled) or MYC (Hs00153408_m1), and GAPDH (Hs02758991_g1, VIC-labeled). The Ct values were measured by running Rotor-Gene Q, and the relative quantity of hTERT, BCL2, and MYC mRNA was obtained compared to GAPDH as an internal control.
(§2) BCL2 is a downstream molecule to hTERT such that BCL2 expression is activated by hTERT to repress apoptosis. To further define the effect of GTC365 on the transcription of hTERT, the relative mRNA levels of MYC and BCL2 were determined by quantitative PCR analysis in MCF7 cells after treatment with GTC365 for 72 h. […] A series of GTC260 analogs were synthesized and their effect on hTERT gene expression in MCF7A and U87 cells determined (FIG. 7). […] Therefore, GTC365 directly repressed the transcription of hTERT and then led to a downstream decrease of BCL2 expression.
(Quantitative PCR measures a nucleic acid by following its amplification.)

A further assay concerns MYC mRNA. Put plainly: qPCR of MYC mRNA in MCF7 cells. The class given is cell-based, human. Conditions: 72 h. Here is the method:
as §1, §2

On to `Cc1cc(NC(=O)NC(=O)c2ccccc2NC(=O)C(C)N)ccc1Oc1ncc(Br)cn1` (centres unmarked) [GTC260], for which the “effect on BCL2 mRNA level” value in the assay with BCL2 mRNA was “direct repression of hTERT transcription and the downstream molecule BCL2”. For the same compound, in the assay with MYC mRNA, the “effect on MYC mRNA level” value is “no effect”.

(Values after patent publication US10556860B2, “hTERT modulators and methods of use” (Arizona Board of Regents on Behalf of the University of …, priority 2015, dated 2020).)
